# “Also recorded” adds a separate entry of the source. Read-outs that look alike come from different tables or passages of the source. Peptide text beside a SMILES is read from it.
# Tests used:
# [1] = ref Esperance data on file, cited from earlier work
# Experimental: A conservative first-in-human starting dose of 0.6 mg/m^2 was chosen, based on the repeat-dose toxicity studies in dogs (which appeared to be the most sensitive species). The initial dose schedule of one 30 min infusion weekly was pre ...
# [2] = test system: LHRH-receptor-positive human ovarian cancer cell line (OVCAR-3); parameters: method as in earlier work; settings: mice implanted with OVCAR-3, three weekly doses; cited from earlier work
# [3] = test system: advanced LHRH-receptor-expressing solid tumors; experiment: Antitumor activity by RECIST version 1.1, tumor biomarkers and CTC; type: in vivo, human
# Experimental: A history and physical examination were conducted pre-study and before every cycle. A complete blood count, serum electrolytes and chemistries were evaluated pre-study and then weekly. Tumor response or progression was assessed by imaging studies at baseline and after every 2 cycles. RECIST version 1.1 criteria were used to assess response.
# (§1) FSH and LH levels as well as testosterone in men and estradiol levels in women were obtained on Days 1, 8, 15 and 22 within 24 h prior to dosing. Testosterone and estradiol levels were measured on Day 1 only after Cycle 1 and at off study assessment. Blood was collected for circulating tumor cells (CTC) prior to dosing on Day 1 of the first cycle. Patients with positive CTC at baseline also had blood collected for CTC analysis prior to dosing on Day 1 of each subsequent cycle. Additional studies included plasma cortisol, adrenocorticotropin (ACTH), thyroxine (T4) and thyroid-stimulating hormone (TSH) and blood for tumor specific biomarker analysis (at investigator’s discretion), all obtained prior to Day 1 dosing with each cycle and at off study assessment. Samples for antidrug antibodies (ADA) were collected on Day 1 of Cycle 1 and then on Day 1 of every odd cycle.
# [4] = Antidrug antibodies (anti-EP-100) ELISA in human serum; type: in vivo; settings: any dose level
# Experimental: ADA were evaluated using an enzyme linked immunoassay validated for the detection of antibodies against EP-100 (anti-EP-100) (Icon plc, formerly Prevalere Life Sciences, LLC, Whitesboro, NY). Antibodies were produced in rabbits against the lytic peptide moiety of EP-100 (APC 338983). Antibodies against EP-100 in human serum were detected by coating 96-well microtiter plates with peptide 338983. At least two wells from each plate were coated with human IgG at 500 ng/mL as controls for the goat antihuman horseradish peroxidase detector. Rabbit anti-EP-100 polyclonal antibody was used as a positive control. The plates were washed, and a mixture of goat antirabbit HRP and goat antihuman HRP and tetramethylbenzidine peroxide substrate were added, and the color development determined in a spectrophotometer at 450 and 620 nm wavelength. The developed color was proportional to the amount of anti-EP-100 antibody in the sample. The anti-EP-100 antibodies in serum were quantified from a calibration curve prepared from the positive control and ranged from 500 to 32,000 ng/mL in 100 % human serum.
# [5] = test system: human cancer cell lines expressing the LHRH receptor; settings: cited from earlier work
# Text: EP-100 is a synthetic 28 amino acid consisting of the LHRH natural ligand joined to an 18 amino acid cationic α-helical lytic peptide (CLIP-71) without a linker. LHRH delivers the lytic peptide to cancer cells via specific binding to cell-surface LHRH receptors. Although EP-100’s exact mechanism of action has not yet been resolved, cancer cell membrane surface characteristics are believed to play a critical role.
# [6] = test system: LHRH-receptor-positive cell lines; settings: in vitro; cited from earlier work
# Text: (§2) A phase 2 clinical trial te ...
# breast cancer model = settings: in vivo breast cancer model; ref Esperance, data on file; cited from earlier work
# Text: as §2
# [7] = cited from earlier work; for histamine release (clinical signs: swelling, redness or raised areas): pre-clinical studies; for well tolerated dose (as high as): repeated dose, ref Esperance data on file
# Experimental: Clinical signs of histamine release were eliminated in a female dog and lessened in a male dog when diphenhydramine was administered. Therefore, histamine release may cause IRDRs, but it remains unclear how EP-100 triggers IRDRs in humans and why the reaction is seen in skin only. Among patients experiencing IRDRs, hematolo ...
# [8] = test system: pituitary gonadotropes (LHRH receptors); experiment: Pharmacodynamics: serum FSH, LH and other pituitary hormones in patients; type: in vivo, human
# Experimental: as §1
smiles,measurement,setting,value
CC(C)C[C@H](NC(=O)CNC(=O)[C@H](Cc1ccc(O)cc1)NC(=O)[C@H](CO)NC(=O)[C@H](Cc1c[nH]c2ccccc12)NC(=O)[C@H](Cc1c[nH]cn1)NC(=O)[C@@H]1CCC(=O)N1)C(=O)N[C@@H](CCCNC(=N)N)C(=O)N1CCC[C@H]1C(=O)NCC(=O)N[C@@H](CCCCN)C(=O)N[C@@H](Cc1ccccc1)C(=O)N[C@@H](C)C(=O)N[C@@H](CCCCN)C(=O)N[C@@H](Cc1ccccc1)C(=O)N[C@@H](C)C(=O)N[C@@H](CCCCN)C(=O)N[C@@H](CCCCN)C(=O)N[C@@H](Cc1ccccc1)C(=O)N[C@@H](C)C(=O)N[C@@H](CCCCN)C(=O)N[C@@H](Cc1ccccc1)C(=O)N[C@@H](C)C(=O)N[C@@H](CCCCN)C(=O)N[C@@H](CCCCN)C(=O)N[C@@H](Cc1ccccc1)C(=O)N[C@@H](C)C(=O)N[C@@H](CCCCN)C(=O)O [EP-100] (HELM PEPTIDE1{[Glp].H.W.S.Y.G.L.R.P.G.K.F.A.K.F.A.K.K.F.A.K.F.A.K.K.F.A.K}$$$$V2.0; C-terminus assumed),highest non-severely toxic dose,[1]; repeat-dose animal studies,2.0 mg/kg/dose
same,pharmacologic effect on pituitary LH and FSH,"[1]; some animals, with reduction in uterine and epididymal weights",reduction in pituitary production
same,in vivo activity,[2],decreased CA-125 levels and tumor regression
same,objective tumor responses (RECIST version 1.1),"[3]; 37 patients, EP-100 single agent",No complete or partial tumor responses; also recorded: No objective tumor responses
same,treatment-related change in tumor biomarkers (CA-125 or PSA) or CTC values,[3]; patients,no treatment-related decreases
same,clinical benefit: patients with stable disease for 16 weeks or longer,"[3]; seven of 37 patients, EP-100 single agent",19%
same,antibodies to EP-100 (ADA),[4],not detected
same,release of cell-death proteases from cells,"[5]; in vitro, low micromolar concentrations",released from cells within minutes
same,incubation time to complete cell lysis,[5]; in vitro,1 h
same,in vitro activity level,"[5]; various human cancer cell lines from solid tumors and hematological malignancies expressing the LHRH receptor, ref Esperance data on file, 37",sub-micromolar
same,"effect of combination with pgp substrates (doxorubicin, paclitaxel, vinorelbine, vincristine) and non-pgp substrates (cisplatinum, 5-fluorouracil)",[6],reversion of drug resistance and potentiation of toxicity
same,tolerability of combination EP-100 with paclitaxel,breast cancer model,well tolerated
same,"histamine release (clinical signs: swelling, redness or raised areas)",[7]; beagle dogs,may trigger histamine release
same,"histamine release (clinical signs: swelling, redness or raised areas)",[7]; mice,may trigger histamine release
same,well tolerated dose (as high as),[7]; dogs,2.0 mg/kg
same,well tolerated dose (as high as),[7]; mice,2.0 mg/kg
same,reduction from baseline FSH,"[8]; one breast cancer patient, dose level 7.8 mg/m^2, FSH 127–15 U/L",88%
same,LH reduction,"[8]; one breast cancer patient, dose level 7.8 mg/m^2, LH 24–1 U/L",96%
same,effect on other pituitary hormones (ACTH and TSH),[8]; patients,not affected
same,FSH decrease,"[8]; second breast cancer patient, 11.7 mg/m^2, FSH 21–4 U/L",81%
same,FSH decrease,"[8]; third breast cancer patient, 26 mg/m^2, FSH 27–4 U/L",85%
same,LH decrease,"[8]; third breast cancer patient, 26 mg/m^2, LH 27–1.3 U/L",95%
same,patients with sustained decreases in LH and FSH,"[8]; three patients of 37, dose levels 11.7 and 26 mg/m^2, all breast cancer",8%
